Experimental data as given in patent publication US20230365589A1, “NOVEL AMINE DERIVATIVES” (Sumitomo Pharma Co., Ltd., priority 2020, published 2023).
pIC50: −log10 of the molar value. Like-named read-outs stand apart in the source and are kept apart here.

Key:
Type in all cases: biochemical
DYRK2 = target: T1, DYRK2 (Homo sapiens, UniProt Q92630); test: Inhibition test on activity of DYRK family, mobility shift assay (MSA): DYRK2
T1 construct: purchased Carna Biosciences, Inc. 04-132
T1 sequence (Q92630 74-601 limits assumed): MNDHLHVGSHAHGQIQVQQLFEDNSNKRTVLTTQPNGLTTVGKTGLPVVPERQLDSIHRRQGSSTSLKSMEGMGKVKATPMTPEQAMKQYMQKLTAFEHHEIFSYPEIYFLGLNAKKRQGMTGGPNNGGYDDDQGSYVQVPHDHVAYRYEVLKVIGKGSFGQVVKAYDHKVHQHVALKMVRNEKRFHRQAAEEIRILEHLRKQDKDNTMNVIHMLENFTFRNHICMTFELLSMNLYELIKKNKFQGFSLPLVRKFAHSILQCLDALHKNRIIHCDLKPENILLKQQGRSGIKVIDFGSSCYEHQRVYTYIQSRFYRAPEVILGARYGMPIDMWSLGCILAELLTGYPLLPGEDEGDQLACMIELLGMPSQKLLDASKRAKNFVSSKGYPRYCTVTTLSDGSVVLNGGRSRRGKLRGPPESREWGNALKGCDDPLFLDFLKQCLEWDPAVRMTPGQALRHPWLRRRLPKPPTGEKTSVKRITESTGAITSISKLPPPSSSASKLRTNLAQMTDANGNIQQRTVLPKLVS
Description: (§1) [Inhibition Test on Activity of DYRK Family (DYRK1A, DYRK1B, DYRK2, and DYRK3)]
(§2) The kinase activity was measured by mobility shift assay (MSA) method using QuickScout Screening Assist™ MSA (commercially available kit manufactured by Carna Biosciences, Inc.). The substrate of the kinase reaction used was an FITC-labeled DYRKtide peptide included in the kit. An assay buffer [20 mM HEPES, 0.01% Triton X-100™, 2 mM dithiothreitol, pH 7.5]was used to create a substrate mixture solution with a substrate (4 μM), MgCl2(20 mM), and ATP (DYRK1A: 100 μM; DYRK1B: 200 μM; DYRK2: 40 μM; and DYRK3: 20 μM). In addition, kinases (DYRK1A: manufactured by Carna Biosciences, Inc., Cat. No. 04-130; DYRK1B: manufactured by Carna Biosciences, Inc., Cat. No. 04-131; DYRK2; manufactured by Carna Biosciences, Inc., Cat. No. 04-132; and DYRK3; manufactured by Carna Biosciences, Inc., Cat. No. 04-133) were diluted with the assay buffer to prepare enzyme solutions (DYRK1A: 0.2 ng/μL; DYRK1B: 0.08 ng/μL; DYRK2: 0.04 ng/μL; and DYRK3: 0.25 ng/μL). The 10 mM solution of the test compound in DMSO was further diluted with DMSO to 10 levels of the concentration (0.00003 mM, 0.0001 mM, 0.0003 mM, 0.001 mM, 0.003 mM, 0.01 mM, 0.03 mM, 0.1 mM, 0.3 mM, and 1 mM), each of which was subjected to 25-fold dilution with the assay buffer to obtain a drug solution (4% DMSO solution). 5 μL of the drug solution or a control solution (4% DMSO-assay buffer), 5 μL of the substrate mixture solution, and 10 μL of the enzyme solution were mixed in the wells of a polypropylene 384-well plate and allowed to react at room temperature for 1 hour, and then the reaction was quenched by adding 60 μL of the termination buffer included in the kit. Subsequently, the quantities of the substrates (S) and the phosphorylated substrate (P) in the reaction solution were measured using LabChip EZ Reader II system (manufactured by Caliper Life Sciences) according to the protocol of the assay kit.
(§3) The heights of the peaks of the “substrate” and the “phosphorylated substrate” were expressed as S and P, respectively, and a blank containing the assay buffer instead of the enzyme solution was also measured.
(§4) The inhibition rate (%) of the test compound was calculated according to the following equation:
(§5) Inhibition rate (%)=(1−(C−A)/(B−A))×100 • wherein, A, B, and C represent P/(P+S) of the blank well, P/(P+S) of the control solution well, and P/(P+S) of the compound-containing well, respectively.
(§6) The IC50 value was calculated via a regression analysis of the inhibition rate and the test compound concentration (logarithmic value).
(§7) The inhibiting activities of representative compounds of the present invention are shown against DYRK1A, DYRK1B, DYRK2, and DYRK3 in Tables.

DYRK3 = target: T2, DYRK3 (Homo sapiens, UniProt O43781); test: Inhibition test on activity of DYRK family, mobility shift assay (MSA): DYRK3; settings: MSA, FITC-labeled DYRKtide peptide, ATP 20 μM; read-out: Inhibitory activity DYRK 3 (IC50 class)
T2 construct: purchased Carna Biosciences, Inc. 04-133
T2 sequence (O43781 1-568 isoform O43781-2): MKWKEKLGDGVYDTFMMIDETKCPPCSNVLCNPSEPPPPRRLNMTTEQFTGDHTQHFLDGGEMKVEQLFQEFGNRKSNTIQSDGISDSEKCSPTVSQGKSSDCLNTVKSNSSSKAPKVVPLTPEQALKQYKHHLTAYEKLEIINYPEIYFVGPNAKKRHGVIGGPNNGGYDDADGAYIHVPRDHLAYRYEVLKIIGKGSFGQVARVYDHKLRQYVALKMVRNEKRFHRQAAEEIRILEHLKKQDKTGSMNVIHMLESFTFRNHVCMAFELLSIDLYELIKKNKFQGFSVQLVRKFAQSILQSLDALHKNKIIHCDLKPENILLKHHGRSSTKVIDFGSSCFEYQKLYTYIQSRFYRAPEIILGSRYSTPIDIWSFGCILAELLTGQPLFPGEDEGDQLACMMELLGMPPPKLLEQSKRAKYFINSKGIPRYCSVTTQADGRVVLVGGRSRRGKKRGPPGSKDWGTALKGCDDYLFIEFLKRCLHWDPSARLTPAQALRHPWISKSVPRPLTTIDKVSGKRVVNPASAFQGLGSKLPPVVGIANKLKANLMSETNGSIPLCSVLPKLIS
Description: as §1, §2, §3, §4, §5, §6, §7

DYRK1A = target: T3, DYRK1A (Homo sapiens, UniProt Q13627); test: Inhibition test on activity of DYRK family, mobility shift assay (MSA): DYRK1A
T3 construct: purchased Carna Biosciences, Inc. 04-130
Description: as §1, §2, §3, §4, §5, §6

[1] = MSA, FITC-labeled DYRKtide peptide, ATP 40 μM, read-out: Inhibitory activity DYRK 2 (IC50 class)
[2] = MSA, FITC-labeled DYRKtide peptide, ATP 100 μM, read-out: Inhibitory activity DYRK 1A (IC50 class)

pIC50 (DYRK2; [1]) | pIC50 (DYRK3) | pIC50 (DYRK1A; [2]) | pIC50 (DYRK1A; read-out: Inhibitory activity DYRK 1A) | pIC50 (DYRK2; read-out: Inhibitory activity DYRK 2) | SMILES
≤ 6.00 | ≤ 6.00 | – | – | – | O=C1N[C@H]2CCN(C3COC3)C[C@H]2N1c1nc2c3c(ccc2s1)OCC3 (racemic) [Example 71, rac-(3aR,7aS)-3-(7,8-dihydrofuro[3,2-e][1,3]benzothiazol-2-yl)-5-(oxetan-3-yl)octahydro-2H-imidazo[4,5-c]pyridin-2-one]
6.00 to 7.00 | ≤ 6.00 | > 8.00 | – | – | O=C1N[C@H]2CCCN(C3COC3)C[C@H]2N1c1nc2c3c(ccc2s1)OCC3 (racemic) [Example 73, rac-(3aR,8aS)-3-(7,8-dihydrofuro[3,2-e][1,3]benzothiazol-2-yl)-5-(oxetan-3-yl)octahydroimidazo[4,5-c]azepin-2(1H)-one]
≤ 6.00 | ≤ 6.00 | 7.00 to 8.00 | – | – | CN1CC[C@@H]2NC(=O)N(c3nc4c5c(ccc4s3)OCCO5)[C@@H]2C1 (racemic) [Example 76, rac-(3aR,7aS)-3-(7,8-dihydro[1,4]dioxino[2,3-e][1,3]benzothiazol-2-yl)-5-methyloctahydro-2H-imidazo[4,5-c]pyridin-2-one]
≤ 6.00 | ≤ 6.00 | 7.00 to 8.00 | – | – | O=C1N[C@H]2CCN(C3COC3)C[C@H]2N1c1nc2c3c(ccc2s1)OCCO3 (racemic) [Example 80, rac-(3aR,7aS)-3-(7,8-dihydro[1,4]dioxino[2,3-e][1,3]benzothiazol-2-yl)-5-(oxetan-3-yl)octahydro-2H-imidazo[4,5-c]pyridin-2-one]
6.00 to 7.00 | 6.00 to 7.00 | – | – | – | O=C1N[C@H]2CCN(C3COC3)C[C@@H]2N1c1nc2c3c(ccc2s1)OCC3 [Example 19, (3aS,7aS)-3-(7,8-dihydrofuro[3,2-e][1,3]benzothiazol-2-yl)-5-(oxetan-3-yl)octahydro-2H-imidazo[4,5-c]pyridin-2-one]

The next lines start with the compound.

SMILES | pIC50 (DYRK2; [1]) | pIC50 (DYRK3) | pIC50 (DYRK1A; [2]) | pIC50 (DYRK1A; read-out: Inhibitory activity DYRK 1A) | pIC50 (DYRK2; read-out: Inhibitory activity DYRK 2)
O=C1N[C@H]2CCN(C3CCC3)C[C@H]2N1c1nc2c3c(ccc2s1)OCC3 (racemic) [Example 72, rac-(3aR,7aS)-5-cyclobutyl-3-(7,8-dihydrofuro[3,2-e][1,3]benzothiazol-2-yl)octahydro-2H-imidazo[4,5-c]pyridin-2-one] | ≤ 6.00 | ≤ 6.00 | 7.00 to 8.00 | – | –
CN1CC[C@@H]2[C@H](C1)NC(=O)N2c1nc2c3c(ccc2s1)OCCO3 (racemic) [Example 77, rac-(3aR,7aS)-1-(7,8-dihydro[1,4]dioxino[2,3-e][1,3]benzothiazol-2-yl)-5-methyloctahydro-2H-imidazo[4,5-c]pyridin-2-one] | ≤ 6.00 | 6.00 to 7.00 | 7.00 to 8.00 | – | –
CN1CC[C@@H]2[C@H](C1)NC(=O)N2c1nc2c3c(ccc2s1)OCO3 (racemic) [Example 78, rac-(3aR,7aS)-1-(2H-[1,3]dioxolo[4,5-e][1,3]benzothiazol-7-yl)-5-methyloctahydro-2H-imidazo[4,5-c]pyridin-2-one] | ≤ 6.00 | 6.00 to 7.00 | 7.00 to 8.00 | – | –
CN1CC[C@@H]2NC(=O)N(c3nc4c5c(ccc4s3)OCO5)[C@@H]2C1 (racemic) [Example 79, rac-(3aR,7aS)-3-(2H-[1,3]dioxolo[4,5-e][1,3]benzothiazol-7-yl)-5-methyloctahydro-2H-imidazo[4,5-c]pyridin-2-one] | ≤ 6.00 | ≤ 6.00 | 7.00 to 8.00 | – | –
C#CCN1CC[C@H]2NC(=O)N(c3nc4c5c(ccc4s3)OCC5)[C@H]2C1 (single isomer, unassigned) [Example 113] | – | – | – | 6.00 to 7.00 | ≤ 6.00
O=C1N[C@H]2COCC[C@H]2N1c1nc2c3c(ccc2s1)OCCO3 [Example 37, (3aR,7aR)-1-(7,8-dihydro[1,4]dioxino[2,3-e][1,3]benzothiazol-2-yl)hexahydropyrano[3,4-d]imidazol-2(3H)-one] | 6.00 to 7.00 | 6.00 to 7.00 | – | – | –
O=C1N[C@H]2CNCC[C@H]2N1c1nc2c3c(ccc2s1)OCO3 [Example 52] | 6.00 to 7.00 | 6.00 to 7.00 | – | – | –
CN1CC[C@@H]2NC(=O)N(c3nc4c5c(ccc4s3)OCC5)[C@@H]2C12CC2 [Example 69] | ≤ 6.00 | ≤ 6.00 | – | – | –
CN1CC[C@H]2NC(=O)N(c3nc4c5c(ccc4s3)OCC5)[C@@H]2C12CC2 [Example 70] | ≤ 6.00 | 6.00 to 7.00 | – | – | –
